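96-well plates; 48 h exposure; 5 concentrations. Endpoints by linear interpolation between flanking doses. Not reached: highest tested concentration assigned. Abbreviation: GI50, concentration required for 50% inhibition of growth. TGI: concentration producing complete growth inhibition.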

Test systems include A498 renal; LXFL 529 NSCLC; NCI-H226 lung; K-562 leukemia; HOP-62 NSCLC; A549 NSCLC; SK-MEL-28 melanoma; HOP-18 NSCLC; M19-MEL melanoma; MDA-MB-231 breast.
Common to all, as to test: NCI anticancer screen, dose series, 48 h

Consider `N#C[S-].[Ce+3].c1cnc2c(c1)ccc1cccnc12.c1cnc2c(c1)ccc1cccnc12.c1cnc2c(c1)ccc1cccnc12`, for which the TGI in the test on A498 renal was 14.5 µM; in the test with LXFL 529 NSCLC, 24.6 µM; in the test on NCI-H226 lung, 8.24 µM; in the test on K-562 leukemia it was more than 100 µM; in the test on HOP-62 NSCLC, 35.7 µM; in the test with A549 NSCLC it was 10.1 µM. In addition, the TGI in the test with SK-MEL-28 melanoma was 26.9 µM; with HOP-18 NSCLC, 7.53 µM; with M19-MEL melanoma it was 3.31 µM. The GI50 was 2.3 µM in the test with LXFL 529 NSCLC, 1.2 µM in the test on HOP-18 NSCLC and 0.555 µM in the test on M19-MEL melanoma.

In the case of `COc1cc2c(cc1OC)-c1cc3ccc(OC)c(OC)c3c[n+]1CC2`, the TGI with MDA-MB-231 breast, in the test with NCI-H226 lung, with K-562 leukemia, in the test with HOP-62 NSCLC, in the test on A549 NSCLC and in the test on SK-MEL-28 melanoma was more than 100 µM throughout.

`O=C(NNC(=O)c1nsc2ccccc12)c1ccc(Cl)cc1`: the TGI with LXFL 529 NSCLC stood at 39.8 µM; in the test with K-562 leukemia it was 35.1 µM; in the test with HOP-62 NSCLC, 33.7 µM; in the test on A549 NSCLC it was 45.9 µM; in the test on SK-MEL-28 melanoma, 36.1 µM; in the test on HOP-18 NSCLC it was 27.4 µM. For the same molecule, the TGI in the test on M19-MEL melanoma turned out to be 39.1 µM.

As to `CCOC(=O)c1c(CN2CCCC2)n(-c2ccccc2)c2cc(Br)c(OC)cc12`, the TGI was 70.4 µM in the test on MDA-MB-231 breast; 19.5 µM in the test with A498 renal; 35.6 µM in the test on NCI-H226 lung; 43.3 µM in the test on K-562 leukemia; 22.5 µM in the test with HOP-62 NSCLC; 28.8 µM in the test with A549 NSCLC. The molecule also registered a TGI in the test on SK-MEL-28 melanoma of 35.3 µM.

As to `CNC(=O)Nc1ccccc1`, the TGI in the test on MDA-MB-231 breast, with A498 renal, in the test with NCI-H226 lung, with K-562 leukemia, in the test with HOP-62 NSCLC and with A549 NSCLC was more than 100 µM throughout. Moreover, the TGI in the test on SK-MEL-28 melanoma was more than 100 µM.

With `C[N+](C)(CCO)CCN1c2ccccc2Sc2ccccc21`, the TGI with MDA-MB-231 breast, in the test with A498 renal, in the test on NCI-H226 lung, in the test on K-562 leukemia, with HOP-62 NSCLC and in the test with A549 NSCLC was more than 10 µM each time. This molecule also returned a TGI with SK-MEL-28 melanoma of more than 10 µM.

On to `O=C1C[C@H](CCC(=O)OCc2ccccc2)NC(=O)C[C@H](CCC(=O)OCc2ccccc2)NC(=O)C[C@H](CCC(=O)OCc2ccccc2)N1`, for which the TGI with MDA-MB-231 breast was 78.3 µM; in the test with A498 renal it was 30.8 µM; in the test on NCI-H226 lung it was more than 100 µM; in the test with K-562 leukemia, more than 100 µM; with HOP-62 NSCLC it was more than 100 µM; with A549 NSCLC it was more than 100 µM. In addition, the TGI in the test on SK-MEL-28 melanoma was more than 100 µM.

On to `Clc1ccc(-c2nnc(-c3c(Cl)c(Cl)c(Cl)c(Cl)c3-c3nc4ccccc4[nH]3)o2)cc1`, for which the TGI in the test with A498 renal, with NCI-H226 lung, in the test with K-562 leukemia, with HOP-62 NSCLC and in the test with SK-MEL-28 melanoma was more than 100 µM in each case.

On to `COc1ccc(C)cc1Nc1nnc(-c2ccc(N)cc2)s1`, for which the TGI in the test with A498 renal, with NCI-H226 lung, in the test with K-562 leukemia, in the test with HOP-62 NSCLC, in the test on A549 NSCLC and with SK-MEL-28 melanoma was more than 100 µM in each case.

As for `O=c1/c(=C/c2ccc([N+](=O)[O-])o2)sc2n1[C@@H](c1ccc3c(c1)OCO3)C=C(c1cc(F)c(Cl)cc1Cl)N=2`, the TGI with MDA-MB-231 breast was 50.4 µM; with A498 renal it was more than 100 µM; with NCI-H226 lung it was more than 100 µM; with K-562 leukemia, more than 100 µM; in the test on HOP-62 NSCLC it was 58.9 µM; with A549 NSCLC, more than 100 µM. In the test with SK-MEL-28 melanoma, this molecule registered a TGI of more than 100 µM.

As for `CC(=O)C1=C(O)CCC1=O`, the TGI in the test on NCI-H226 lung, with K-562 leukemia, in the test with HOP-62 NSCLC, with A549 NSCLC and in the test on SK-MEL-28 melanoma was more than 100 µM each time.

As for `Cn1c(=O)c2c(nc(NCCNc3nc4c(c(=O)n(C)c(=O)n4C)n3C)n2C)n(C)c1=O`, the TGI with MDA-MB-231 breast, in the test on A498 renal, in the test with NCI-H226 lung, in the test with K-562 leukemia, with HOP-62 NSCLC and in the test on A549 NSCLC was more than 100 µM in each case. For the same molecule, the TGI in the test with SK-MEL-28 melanoma is more than 100 µM.

Take `NC(CC(=O)O)(Cc1ccccc1)C(=O)O` (centres undefined): the TGI with MDA-MB-231 breast, with A498 renal, in the test with NCI-H226 lung, in the test with K-562 leukemia, in the test on HOP-62 NSCLC and in the test with A549 NSCLC was more than 100 µM in each case. In the test on SK-MEL-28 melanoma, this molecule showed a TGI of more than 100 µM.

With `C[C@]12CCC(=O)C=C1CC[C@@H]1[C@@H]2[C@@H](O)C[C@@]2(C)[C@H]1CC[C@]2(O)C(=O)COC(=O)C1CCCC1`, the TGI with MDA-MB-231 breast, with A498 renal, in the test with NCI-H226 lung, with K-562 leukemia, in the test on HOP-62 NSCLC and in the test on A549 NSCLC was more than 100 µM throughout. The molecule also registered a TGI in the test with SK-MEL-28 melanoma of more than 100 µM.

As to `COc1ccc2nc3ccccc3c(NCc3ccc(C)cc3)c2c1`, the GI50 is 1.76 µM in the test with MDA-MB-231 breast; 1.65 µM in the test on A498 renal; 1.97 µM in the test on NCI-H226 lung; 1.61 µM in the test with K-562 leukemia; 1.78 µM in the test with HOP-62 NSCLC; 1.96 µM in the test on A549 NSCLC. In addition, the GI50 in the test on SK-MEL-28 melanoma is 1.75 µM. Also, the TGI is 4.12 µM in the test on MDA-MB-231 breast; 3.05 µM with A498 renal; 5.12 µM in the test on NCI-H226 lung; more than 100 µM in the test with K-562 leukemia; 3.7 µM in the test on HOP-62 NSCLC; 4.71 µM in the test with A549 NSCLC. Moreover, in the test with SK-MEL-28 melanoma, the TGI was 3.29 µM.

On to `Cc1ccc(SSCCCCCS(=O)O)cc1`, for which the TGI is 52 µM with A498 renal; 28.5 µM in the test with LXFL 529 NSCLC; more than 100 µM in the test with K-562 leukemia; 56.4 µM with HOP-62 NSCLC; more than 100 µM with SK-MEL-28 melanoma; more than 100 µM in the test on M19-MEL melanoma.

`O=C(COc1ccc(Cl)cc1Cl)N/N=C/C=C/c1ccc([N+](=O)[O-])o1`: the TGI in the test with MDA-MB-231 breast is 95.6 µM; in the test on A498 renal, more than 100 µM; with NCI-H226 lung, more than 100 µM; with K-562 leukemia, more than 100 µM; in the test with HOP-62 NSCLC, 54.4 µM; with A549 NSCLC, more than 100 µM. Further, the TGI with SK-MEL-28 melanoma was more than 100 µM.

The values are drawn from PubChem BioAssay (NCI).
